The source of these data is patent US4950663A, “Antihypertensive composition” (priority 1989, dated 1990).

Data set [1] in a line: Comparative cardiovascular effects (heart rate, mean arterial pressure, coronary blood flow) after intravenous dosing in anesthetized dogs. Particulars: for effect on heart rate (in words): M2 at 1600 μg/kg, diltiazem at 400 μg/kg; for reduction in heart rate: M2 at a dosage 4 times greater than diltiazem. The class given is in vivo.
The conditions of data set [2]: dogs; test of dose required to cause a 50% increase in blood flow; cited from earlier work.
The nature of a further data set: Liposolubility. The class given is physicochemical.
Data set [3] can be described thus: Elimination and metabolism. It is filed as in vivo.
A further data set in a line: Side effects. It is filed as in vivo. The settings on record: compositions.
The mark [4] stands for this setting: anesthetized dogs, 50 μg/kg intravenous, value at 0 μg/kg: D 59, M2 49.
Where [5] appears, read: anesthetized dogs, 50 μg/kg intravenous, value at 0 μg/kg: D 99, M2 99.
Setting [6] is: anesthetized dogs, 200 μg/kg intravenous, value at 0 μg/kg: D 59, M2 49.
The mark [7] stands for this setting: anesthetized dogs, 200 μg/kg intravenous, value at 0 μg/kg: D 99, M2 99.
[8] abbreviates: anesthetized dogs, 200 μg/kg intravenous, value at 0 μg/kg: D 130, M2 127.

“Also recorded” adds a separate entry of the source. Structures can show the parent of a compound that is named as a salt. Bounds are passed on as bounds.

`COc1ccc([C@@H]2Sc3ccccc3N(CCN(C)C)C(=O)[C@@H]2OC(C)=O)cc1` [Diltiazem, (+)-cis-3-(acetyloxy)-5-[2-dimethylamino-ethyl]-2,3-dihydro-2-(4-methoxyphenyl)-l,5-benzothiaz epin-4(5H)one monohydrochloride, reference compound]: the Coronary blood flow in data set [1] (anesthetized dogs, 15 μg/kg intravenous, value at 0 μg/kg: D 59) was found to be 67 mL/min; in data set [1] (setting [4]), 73 mL/min; in data set [1] (setting [6]), 91 mL/min; in data set [1] (anesthetized dogs, 400 μg/kg intravenous, value at 0 μg/kg: D 59), 83 mL/min. Also, the Mean arterial pressure in data set [1] (anesthetized dogs, 15 μg/kg intravenous, value at 0 μg/kg: D 99) amounted to 94 mm Hg; in data set [1] (setting [5]), 84 mm Hg; in data set [1] (setting [7]), 67 mm Hg; in data set [1] (anesthetized dogs, 400 μg/kg intravenous, value at 0 μg/kg: D 99), 58 mm Hg. The compound also showed a Heart rate in data set [1] (setting [8]) of 122 beats/minute. For the same compound, in data set [1] (anesthetized dogs, intravenous), the “Maximal reduction in mean arterial pressure” value is reported as -38%. In addition, in data set [1] (anesthetized dogs, intravenous), the “increase in coronary blood flow” value is listed as more than 50%. In addition, the “effect on heart rate (in words)” value in data set [1] (anesthetized dogs, intravenous) is on record as “significant effect on the heart rate”. For the same compound, the “reduction in heart rate” value in data set [1] (anesthetized dogs, intravenous) is more than 20%.

For the compound `CNCCN1C(=O)C(O)C(c2ccc(OC)cc2)Sc2ccccc21` (stereo not drawn) [M2, N-desmethyl, deacetyl diltiazem], the Coronary blood flow in data set [1] (setting [4]) was determined as 53 mL/min; in data set [1] (setting [6]), 55 mL/min; in data set [1] (anesthetized dogs, 800 μg/kg intravenous, value at 0 μg/kg: M2 49), 61 mL/min; in data set [1] (anesthetized dogs, 1600 μg/kg intravenous, value at 0 μg/kg: M2 49) it was 61 mL/min. Also, the Mean arterial pressure in data set [1] (setting [5]) is 96 mm Hg; in data set [1] (setting [7]) it was 88 mm Hg; in data set [1] (anesthetized dogs, 800 μg/kg intravenous, value at 0 μg/kg: M2 99), 74 mm Hg; in data set [1] (anesthetized dogs, 1600 μg/kg intravenous, value at 0 μg/kg: M2 99), 63 mm Hg. Besides, the Heart rate in data set [1] (anesthetized dogs, 50 μg/kg intravenous, value at 0 μg/kg: D 130, M2 127) was 127 beats/minute; in data set [1] (setting [8]), 127 beats/minute; in data set [1] (anesthetized dogs, 800 μg/kg intravenous, value at 0 μg/kg: M2 127) it was 125 beats/minute; in data set [1] (anesthetized dogs, 1600 μg/kg intravenous, value at 0 μg/kg: M2 127), 119 beats/minute. For the same compound, the “Maximal reduction in mean arterial pressure” value in data set [1] (anesthetized dogs, intravenous) was -36%. The “coronary blood flow dilation relative to diltiazem” value in data set [1] (anesthetized dogs, intravenous) is on record as “about half that effect; also recorded: about half that of diltiazem”. In addition, the “increase in coronary blood flow” value in data set [1] (anesthetized dogs, intravenous) is more than 25%. Further, the “peripheral dilation capacity relative to diltiazem” value in data set [1] (anesthetized dogs, intravenous) is “equivalent peripheral dilation capacity”. Besides, the “effect on heart rate (in words)” value in data set [1] (anesthetized dogs, intravenous) is reported as “devoted of major effect upon heart rate”; in data set [1] (anesthetized dogs, intravenous, deacetyl diltiazem) it was “only a slight effect on the heart rate”. Also, the “reduction in heart rate” value in data set [1] (anesthetized dogs, intravenous) is recorded as less than 10%. In data set [1] (anesthetized dogs, maximal dosage 4 times greater than diltiazem), the “serious cardiovascular adverse effects” value is “without serious cardiovascular adverse effects”. In addition, the “effect on mean arterial pressure (in words)” value in data set [1] (anesthetized dogs, various intravenous dosages) is “decreases the mean arterial pressure”. Besides, the “decrease in heart rate compared with diltiazem” value in data set [1] (compared with diltiazem) is “decrease the heart rate to a lesser degree than diltiazem”. For the same compound, in data set [1] (intravenous), the “intravenous dosages suitable for use as a coronary dilator” value is 50 to 1600 µg/kg. For the same compound, in data set [1] (intravenous), the “intravenous dosages useful to decrease blood pressure or mean arterial pressure” value was in the range of 200 to 1600 µg/kg. Moreover, in data set [2], the “effect on coronary blood flow relative to diltiazem” value was 20%. Moreover, the “liposolubility compared with diltiazem” value in “Liposolubility” is on record as “lower liposolubility than diltiazem”. Moreover, the “elimination half life compared with diltiazem” value in data set [3] (compared with diltiazem) is given as “shorter elimination half life”. In data set [3] (in vivo), the “metabolism by the liver” value is “not metabolized extensively by the liver”. The “side effects compared with diltiazem” value in “Side effects” is “less side effects than diltiazem”.
